The values below are quoted from earlier work in PubChem BioAssay AID1259409 (Chemical Carcinogenesis Research Information System (CCRIS), 2018).

The data set has as its system rodent chemically induced tumor inhibition, incidence and multiplicity. Description: CCRIS tumor inhibitor studies.

Turning to `C#Cc1ccc2ccc3cccc4ccc1c2c34`, the “tumour outcome (control, treated, inhibition, significance)” value runs as follows: (Carcinogen: 7,12-DIMETHYLBENZ[A]ANTHRACENE, 57-97-6, Dose [Inhibitor]: 0, 0.044 NMOL IN 0.2 ML ACETONE APPLIED TO BACK ONCE 5 MIN PRIOR TO CARCINOGEN DOSE (STUDY DURATION: 26 WK), Route [Inhibitor]: DERMAL, Species: MOUSE, Strain/Sex: SENCAR/FEMALE, Target Tissue: Type of Lesion: SKIN: PAPILLOMA, Dose [Carcinogen]: 10 NMOL IN 0.2 ML ACETONE APPLIED TO BACK ONCE.) 100%, 93%, 7%, not calculated; (Carcinogen: 7,12-DIMETHYLBENZ[A]ANTHRACENE, 57-97-6, Dose [Inhibitor]: 0, 0.44 NMOL IN 0.2 ML ACETONE APPLIED TO BACK ONCE 5 MIN PRIOR TO CARCINOGEN DOSE (STUDY DURATION: 20 WK), Route [Inhibitor]: DERMAL, Species: MOUSE, Strain/Sex: SENCAR/FEMALE, Target Tissue: Type of Lesion: SKIN: PAPILLOMA, Dose [Carcinogen]: 10 NMOL IN 0.2 ML ACETONE APPLIED TO BACK ONCE.) 100%, 50%, 50%, not calculated; (Carcinogen: 7,12-DIMETHYLBENZ[A]ANTHRACENE, 57-97-6, Dose [Inhibitor]: 0, 4.4 NMOL IN 0.2 ML ACETONE APPLIED TO BACK ONCE 5 MIN PRIOR TO CARCINOGEN DOSE (STUDY DURATION: 26 WK), Route [Inhibitor]: DERMAL, Species: MOUSE, Strain/Sex: SENCAR/FEMALE, Target Tissue: Type of Lesion: SKIN: PAPILLOMA, Dose [Carcinogen]: 10 NMOL IN 0.2 ML ACETONE APPLIED TO BACK ONCE.) 100%, 83%, 17%, not calculated; (Carcinogen: 7,12-DIMETHYLBENZ[A]ANTHRACENE, 57-97-6, Dose [Inhibitor]: 0, 22 NMOL IN 0.2 ML ACETONE APPLIED TO BACK ONCE 5 MIN PRIOR TO CARCINOGEN DOSE (STUDY DURATION: 26 WK), Route [Inhibitor]: DERMAL, Species: MOUSE, Strain/Sex: SENCAR/FEMALE, Target Tissue: Type of Lesion: SKIN: PAPILLOMA, Dose [Carcinogen]: 10 NMOL IN 0.2 ML ACETONE APPLIED TO BACK ONCE.) 100%, 60%, 40%, not calculated; (Carcinogen: 7,12-DIMETHYLBENZ[A]ANTHRACENE, 57-97-6, Dose [Inhibitor]: 0, 44 NMOL IN 0.2 ML ACETONE APPLIED TO BACK ONCE 5 MIN PRIOR TO CARCINOGEN DOSE (STUDY DURATION: 26 WK), Route [Inhibitor]: DERMAL, Species: MOUSE, Strain/Sex: SENCAR/FEMALE, Target Tissue: Type of Lesion: SKIN: PAPILLOMA, Dose [Carcinogen]: 10 NMOL IN 0.2 ML ACETONE APPLIED TO BACK ONCE.) 100%, 35%, 65%, not calculated; (Carcinogen: 7,12-DIMETHYLBENZ[A]ANTHRACENE, 57-97-6, Dose [Inhibitor]: 0, 440 NMOL IN 0.2 ML ACETONE APPLIED TO BACK ONCE 5 MIN PRIOR TO CARCINOGEN DOSE (STUDY DURATION: 20 WK), Route [Inhibitor]: DERMAL, Species: MOUSE, Strain/Sex: SENCAR/FEMALE, Target Tissue: Type of Lesion: SKIN: PAPILLOMA, Dose [Carcinogen]: 10 NMOL IN 0.2 ML ACETONE APPLIED TO BACK ONCE.) 100%, 24%, 76%, not calculated. The “tumour outcome (control, treated, inhibition, significance)” value runs as follows: (Carcinogen: 7,12-DIMETHYLBENZ[A]ANTHRACENE, 57-97-6, Dose [Inhibitor]: 0, 4400 NMOL IN 0.2 ML ACETONE APPLIED TO BACK ONCE., Route [Inhibitor]: DERMAL, Species: MOUSE, Strain/Sex: SENCAR/FEMALE, Target Tissue: Type of Lesion: SKIN: PAPILLOMA, Dose [Carcinogen]: 10 NMOL IN 0.2 ML ACETONE APPLIED TO BACK ONCE.) 100%, 0%, 100%, not calculated; (Carcinogen: BENZO[A]PYRENE, 50-32-8, Dose [Inhibitor]: 0, 22 NMOL IN 0.2 ML ACETONE APPLIED TO BACK ONCE 5 MIN PRIOR TO CARCINOGEN DOSE (STUDY DURATION: 26 WK), Route [Inhibitor]: DERMAL, Species: MOUSE, Strain/Sex: SENCAR/FEMALE, Target Tissue: Type of Lesion: SKIN: PAPILLOMA, Dose [Carcinogen]: 200 NMOL IN 0.2 ML ACETONE APPLIED TO BACK ONCE.) 100%, 91%, 9%, not calculated; (Carcinogen: BENZO[A]PYRENE, 50-32-8, Dose [Inhibitor]: 0, 44 NMOL IN 0.2 ML ACETONE APPLIED TO BACK ONCE 5 MIN PRIOR TO CARCINOGEN DOSE (STUDY DURATION: 26 WK), Route [Inhibitor]: DERMAL, Species: MOUSE, Strain/Sex: SENCAR/FEMALE, Target Tissue: Type of Lesion: SKIN: PAPILLOMA, Dose [Carcinogen]: 200 NMOL IN 0.2 ML ACETONE APPLIED TO BACK ONCE.) 100%, 96%, 4%, not calculated; (Carcinogen: BENZO[A]PYRENE, 50-32-8, Dose [Inhibitor]: 0, 440 NMOL IN 0.2 ML ACETONE APPLIED TO BACK ONCE 5 MIN PRIOR TO CARCINOGEN DOSE (STUDY DURATION: 26 WK), Route [Inhibitor]: DERMAL, Species: MOUSE, Strain/Sex: SENCAR/FEMALE, Target Tissue: Type of Lesion: SKIN: PAPILLOMA, Dose [Carcinogen]: 200 NMOL IN 0.2 ML ACETONE APPLIED TO BACK ONCE.) 100%, 74%, 26%, not calculated; (Carcinogen: BENZO[A]PYRENE, 50-32-8, Dose [Inhibitor]: 0, 4400 NMOL IN 0.2 ML ACETONE APPLIED TO BACK ONCE 5 MIN PRIOR TO CARCINOGEN DOSE (STUDY DURATION: 20 WK), Route [Inhibitor]: DERMAL, Species: MOUSE, Strain/Sex: SENCAR/FEMALE, Target Tissue: Type of Lesion: SKIN: PAPILLOMA, Dose [Carcinogen]: 200 NMOL IN 0.2 ML ACETONE APPLIED TO BACK ONCE.) 75%, 59%, 21%, not calculated; (Carcinogen: BENZO[A]PYRENE, 50-32-8, Dose [Inhibitor]: 0, 4400 NMOL IN 0.2 ML ACETONE APPLIED TO BACK ONCE 5 MIN PRIOR TO CARCINOGEN DOSE (STUDY DURATION: 26 WK), Route [Inhibitor]: DERMAL, Species: MOUSE, Strain/Sex: SENCAR/FEMALE, Target Tissue: Type of Lesion: SKIN: PAPILLOMA, Dose [Carcinogen]: 200 NMOL IN 0.2 ML ACETONE APPLIED TO BACK ONCE.) 100%, 71%, 29%, not calculated. In addition, the “tumour outcome (control, treated, inhibition, significance)” value (Carcinogen: BENZO[A]PYRENE, 50-32-8, Dose [Inhibitor]: 0, 22000 NMOL IN 0.2 ML ACETONE APPLIED TO BACK ONCE 5 MIN PRIOR TO CARCINOGEN DOSE (STUDY DURATION: 20 WK), Route [Inhibitor]: DERMAL, Species: MOUSE, Strain/Sex: SENCAR/FEMALE, Target Tissue: Type of Lesion: SKIN: PAPILLOMA, Dose [Carcinogen]: 200 NMOL IN 0.2 ML ACETONE APPLIED TO BACK ONCE.) is 75%, 35%, 53%, not calculated; the “tumour outcome (control, treated, inhibition, significance)” value (Carcinogen: BENZO[A]PYRENE, 50-32-8, Dose [Inhibitor]: 0, 44000 NMOL IN 0.2 ML ACETONE APPLIED TO BACK ONCE 5 MIN PRIOR TO CARCINOGEN DOSE (STUDY DURATION: 20 WK), Route [Inhibitor]: DERMAL, Species: MOUSE, Strain/Sex: SENCAR/FEMALE, Target Tissue: Type of Lesion: SKIN: PAPILLOMA, Dose [Carcinogen]: 200 NMOL IN 0.2 ML ACETONE APPLIED TO BACK ONCE.) is 75%, 22%, 71%, not calculated; the “tumour outcome (control, treated, inhibition, significance)” value (Carcinogen: N-METHYL-N'-NITRO-N-NITROSOGUANIDINE, 70-25-7, Dose [Inhibitor]: 0, 4400 NMOL IN 0.2 ML ACETONE APPLIED TO BACK ONCE 5 MIN PRIOR TO CARCINOGEN DOSE (STUDY DURATION: 20 WK), Route [Inhibitor]: DERMAL, Species: MOUSE, Strain/Sex: SENCAR/FEMALE, Target Tissue: Type of Lesion: SKIN: PAPILLOMA, Dose [Carcinogen]: 2500 NMOL IN 0.2 ML ACETONE APPLIED TO BACK ONCE.) is 78%, 78%, 0%, not significant. Moreover, the outcome (Carcinogen: 7,12-DIMETHYLBENZ[A]ANTHRACENE, 57-97-6, Dose [Inhibitor]: 0, 0.44 NMOL IN 0.2 ML ACETONE APPLIED TO BACK ONCE 5 MIN PRIOR TO CARCINOGEN DOSE (STUDY DURATION: 26 WK), Route [Inhibitor]: DERMAL, Species: MOUSE, Strain/Sex: SENCAR/FEMALE, Target Tissue: Type of Lesion: SKIN: PAPILLOMA, Dose [Carcinogen]: 10 NMOL IN 0.2 ML ACETONE APPLIED TO BACK ONCE.) is 100%, 100%, 0, not calculated.
Take `COC(=O)[C@H](CCSC)NC(C)=O`: for the setting “Carcinogen: 7,12-DIMETHYLBENZ[A]ANTHRACENE, 57-97-6, Dose [Inhibitor]: 0.06 MMOL/G DIET DAILY FOR 17 WK STARTING 1 WK PRIOR TO CARCINOGEN TREATMENT AND CONTINUING THROUGH THE END OF THE STUDY, Route [Inhibitor]: ORAL, Species: RAT, Strain/Sex: SPRAGUE-DAWLEY/FEMALE, Target Tissue: Type of Lesion: MAMMARY GLAND: TUMOR, Dose [Carcinogen]: 12 MG IN 1 ML OLIVE OIL ONCE, Promoter: NONE USED”, the “tumour outcome (control, treated, inhibition, significance)” value was 59%, 75%, -27%, not calculated.
